# From US20240228488A1 (TAKEDA PHARMACEUTICAL COMPANY LIMITED, priority 2021, published 2024)
# Biological target: human activated kallikrein enzyme (Homo sapiens, UniProt P03952)
# Assay: Plasma kallikrein inhibition, fluorogenic PFR-AMC substrate, 500 pM activated kallikrein format
# Assay type: biochemical
# Conditions: 500 pM activated kallikrein, 300 uM PFR-AMC, 30 min preincubation, 10 min reaction; read-out: Primary Dose Response Assay: Average EC50
# Description: Compounds were evaluated for inhibition of the human activated kallikrein enzyme in two formats of an assay employing a fluorogenic peptide substrate. In one assay format, the concentrations of reagents were as follows: 20 mM Tris pH 7.5, 1 mM EDTA, 150 mM sodium chloride, 0.1% PEG-400, 0.1% Triton X-100, 500 pM activated kallikrein enzyme, 300 uM Pro-Phe-Arg-7-amido-4-methylcoumarin (PFR-AMC) substrate. Prior to reaction initiation with substrate, enzyme and inhibitors were preincubated for 30 min at room temperature. After initiation with substrate, reactions were incubated for 10 min at room temperature and fluorescence emission at 460 nm from 380 nm excitation measured with a microplate reader. In another assay format, the concentrations of reagents were as follows: 20 mM Tris pH 7.5, 1 mM EDTA, 150 mM sodium chloride, 0.1% PEG-400, 0.1% Triton X-100, 5 pM activated kallikrein enzyme, 300 uM PFR-AMC substrate. Prior to reaction initiation with substrate, enzyme and inhibitors were preincubated for 30 min at room temperature. After initiation with substrate, reactions were incubated for 18 hr at room temperature and fluorescence emission at 460 nm from 380 nm excitation measured with a microplate reader.
# Table 49 provides the results of the assay in the format with 500 pM activated kallikrein assay. For the compounds listed in Table 49, the EC50 values are reported according to the following ranges: A≤1.0 nM; 1.0 nM<B≤10 nM; 10 nM<C≤100 nM; 100 nM<D≤1000 nM; 1000 nM<E≤6000 nM; 6000 nM<F.
# Table 51 provides comparative plasma kallikrein inhibition potency in the assay format with 500 pM activated kallikrein assay (described in detail in a preceding example). For the compounds listed in Table 51, the EC50 values are reported according to the following ranges: A≤1.0 nM; 1.0 nM<B≤10 nM; 10 nM<C≤100 nM; 100 nM<D≤1000 nM; 1000 nM<E≤6000 nM; 6000 nM<F.
# Chain of human activated kallikrein enzyme (P03952 391-638 limits assumed): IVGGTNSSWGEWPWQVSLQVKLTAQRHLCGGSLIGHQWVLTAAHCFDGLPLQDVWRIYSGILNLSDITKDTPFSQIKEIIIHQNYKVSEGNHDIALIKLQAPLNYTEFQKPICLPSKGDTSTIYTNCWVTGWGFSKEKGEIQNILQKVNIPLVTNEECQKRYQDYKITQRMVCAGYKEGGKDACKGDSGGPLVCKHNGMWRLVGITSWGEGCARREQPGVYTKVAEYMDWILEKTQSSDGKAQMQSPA
# Chain of human activated kallikrein enzyme (P03952 20-390 partner limits assumed): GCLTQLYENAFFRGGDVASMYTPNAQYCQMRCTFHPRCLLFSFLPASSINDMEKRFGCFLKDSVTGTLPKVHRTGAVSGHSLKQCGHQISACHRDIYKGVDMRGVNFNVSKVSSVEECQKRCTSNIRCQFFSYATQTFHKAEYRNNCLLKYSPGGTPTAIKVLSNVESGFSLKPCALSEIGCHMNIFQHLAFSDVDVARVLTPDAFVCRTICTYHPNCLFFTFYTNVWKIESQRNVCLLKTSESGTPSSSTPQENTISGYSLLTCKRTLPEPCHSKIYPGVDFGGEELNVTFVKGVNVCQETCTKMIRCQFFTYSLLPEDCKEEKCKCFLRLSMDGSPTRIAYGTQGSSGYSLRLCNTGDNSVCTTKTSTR
row,EC50 [nM],Compound
1,< 1,"COCc1cnc(NC(=O)[C@H]2C[C@@H]2c2nccc(C)n2)nc1OCc1cn2cc(C3CC3)cc(N3CC(=O)N(C)C3=O)c2n1 [Example 663, (1S,2S)—N-(4-((6-cyclopropyl-8-(3-methyl-2,4-dioxoimidazolidin-1-yl)imidazo[1,2-a]pyridin-2-yl)methoxy)-5-(methoxymethyl)pyrimidin-2-yl)-2-(4-methylpyrimidin-2-yl)cyclopropane-1-carboxamide]"
2,< 1,"COCc1nc(NC(=O)[C@H]2C[C@@H]2c2nccc(C)n2)cc(N[C@H](C)c2cn3cc(C4(F)CC4)cc(N4CC(=O)N(C)C4=O)c3n2)n1 [Example 439, (1S,2S)-N-(6-(((R)-1-(6-(1-fluorocyclopropyl)-8-(3-methyl-2,4-dioxoimidazolidin-1-yl)imidazo[1,2-a]pyridin-2-yl)ethyl)amino)-2-(methoxymethyl)pyrimidin-4-yl)-2-(4-methylpyrimidin-2-yl)cyclopropane-1-carboxamide]"
3,< 1,"CCc1cc(N2CC(=O)N(C)C2=O)c2nc([C@@H](C)Nc3cc(NC(=O)[C@H]4C[C@@H]4c4nccc(C)n4)ncn3)cn2c1 [Example 419, (1S,2S)-N-(6-(((R)-1-(6-ethyl-8-(3-methyl-2,4-dioxoimidazolidin-1-yl)imidazo[1,2-a]pyridin-2-yl)ethyl)amino)pyrimidin-4-yl)-2-(4-methylpyrimidin-2-yl)cyclopropane-1-carboxamide]"
4,< 1,"O=C(Nc1cc(NCc2cn3cc(C4CC4)ccc3n2)ncn1)[C@H]1C[C@@H]1c1nccc(Cl)n1 (racemic) [Example I-177, rac-(1S*,2S*)-2-(4-chloropyrimidin-2-yl)-N-(6-(((6-cyclopropylimidazo[1,2-a]pyridin-2-yl)methyl)amino)pyrimidin-4-yl)cyclopropane-1-carboxamide]"
5,> 6000,"C[C@H]1[C@H](C(=O)Nc2cc(NCc3cn4cc(C5CC5)ccc4n3)ncn2)[C@H]1c1cccc(Cl)c1 (single isomer, unassigned) [Example 507, (1R*,2R*,3S*)-2-(3-chlorophenyl)-N-(6-(((6-cyclopropylimidazo[1,2-a]pyridin-2-yl)methyl)amino)pyrimidin-4-yl)-3-methylcyclopropane-1-carboxamide]"
6,1000 to 6000,"O=C(Nc1cc(N2C[C@@H](CO)C[C@@H]2c2cn3cc(C4CC4)ccc3n2)ncn1)[C@H]1C[C@@H]1c1cc(Cl)ccn1 [Example 442, (1S,2S)-2-(4-chloropyridin-2-yl)-N-(6-((2R,4S)-2-(6-cyclopropylimidazo[1,2-a]pyridin-2-yl)-4-(hydroxymethyl)pyrrolidin-1-yl)pyrimidin-4-yl)cyclopropane-1-carboxamide]"
7,1 to 10,"O=C(Nc1cc(NCc2cn3cc(Cl)ccc3n2)ccn1)[C@H]1C[C@@H]1c1cccc(Cl)c1 [Example I-253, (1S,2S)-N-(4-(((6-chloroimidazo[1,2-a]pyridin-2-yl)methyl)amino)pyridin-2-yl)-2-(3-chlorophenyl)cyclopropane-1-carboxamide]"
8,10 to 100,"Cc1ccnc([C@H]2C[C@@H]2C(=O)Nc2cc(N3C[C@@H](O)C[C@@H]3c3cn4cc(C5CC5)ccc4n3)ncn2)c1F (relative stereo) [Example 542, rac-(1S*,2S*)-N-(6-((2R,4S)-2-(6-cyclopropylimidazo[1,2-a]pyridin-2-yl)-4-hydroxypyrrolidin-1-yl)pyrimidin-4-yl)-2-(3-fluoro-4-methylpyridin-2-yl)cyclopropane-1-carboxamide]"
9,< 1,"Cc1cc(NCc2cn3cc(C4CC4)cc(N4CC(=O)N(C)C4=O)c3n2)cc(NC(=O)[C@H]2C[C@@H]2c2nccc(C)n2)n1 [Example I-642, (1S,2S)—N-(4-(((6-cyclopropyl-8-(3-methyl-2,4-dioxoimidazolidin-1-yl)imidazo[1,2-a]pyridin-2-yl)methyl)amino)-6-methylpyridin-2-yl)-2-(4-methylpyrimidin-2-yl)cyclopropane-1-carboxamide]"
10,100 to 1000,"O=C(Nc1cc(NCc2cn3cc(C4CC4)ccc3n2)ncn1)[C@H]1C[C@@H]1c1cc(Cl)cnn1 (racemic) [Example I-178, rac-(1S*,2S*)-2-(5-chloropyridazin-3-yl)-N-(6-(((6-cyclopropylimidazo[1,2-a]pyridin-2-yl)methyl)amino)pyrimidin-4-yl)cyclopropane-1-carboxamide]"
11,1 to 10,"NC(=O)c1cc(C2CC2)cn2cc(CNc3cc(NC(=O)[C@H]4C[C@@H]4c4cccc(Cl)c4)ncn3)nc12 [Example 302, 2-(((6-((1S,2S)-2-(3-chlorophenyl)cyclopropane-1-carboxamido)pyrimidin-4-yl)amino)methyl)-6-cyclopropylimidazo[1,2-a]pyridine-8-carboxamide]"
12,10 to 100,"CC(C)(C)OC(=O)N1CC(c2cc(C3CC3)cn3cc(CNc4ccnc(NC(=O)[C@H]5C[C@@H]5c5cccc(Cl)c5)c4)nc23)C1 [Example I-226, tert-butyl 3-(2-(((2-((1S,2S)-2-(3-chlorophenyl)cyclopropane-1-carboxamido)pyridin-4-yl)amino)methyl)-6-cyclopropylimidazo[1,2-a]pyridin-8-yl)azetidine-1-carboxylate]"
13,< 1,"Cc1ccnc([C@H]2C[C@@H]2C(=O)Nc2nncc(N[C@H](C)c3cn4cc(C5CC5)cc(N5CC(=O)N(C)C5=O)c4n3)n2)n1 [Example 665, (1S,2S)—N-(5-(((R)-1-(6-cyclopropyl-8-(3-methyl-2,4-dioxoimidazolidin-1-yl)imidazo[1,2-a]pyridin-2-yl)ethyl)amino)-1,2,4-triazin-3-yl)-2-(4-methylpyrimidin-2-yl)cyclopropane-1-carboxamide]"
14,1 to 10,"COc1cc(NC(=O)[C@H]2C[C@@H]2c2nccc(C)n2)nc(OCc2cn3cc(C4CC4)cc(N4CC(=O)N(C)C4=O)c3n2)c1 [Example 38, (1S,2S)-N-(6-((6-cyclopropyl-8-(3-methyl-2,4-dioxoimidazolidin-1-yl)imidazo[1,2-α]pyridin-2-yl)methoxy)-4-methoxypyridin-2-yl)-2-(4-methylpyrimidin-2-yl)cyclopropane-1-carboxamide]"
15,100 to 1000,"O=C(Nc1cc(NCc2cn3cc(C4CC4)ccc3n2)ncn1)[C@H]1C[C@@H]1c1cc(Cl)ncn1 (racemic) [Example I-176, rac-(1S*,2S*)-2-(6-chloropyrimidin-4-yl)-N-(6-(((6-cyclopropylimidazo[1,2-a]pyridin-2-yl)methyl)amino)pyrimidin-4-yl)cyclopropane-1-carboxamide]"
16,10 to 100,"O=C(Nc1nccnc1OCc1cn2cc(C3CC3)ccc2n1)[C@H]1C[C@@H]1c1cccc(Cl)c1 [Example 570, (1S,2S)-2-(3-chlorophenyl)-N-(3-((6-cyclopropylimidazo[1,2-a]pyridin-2-yl)methoxy)pyrazin-2-yl)cyclopropane-1-carboxamide]"
17,< 1,Cc1ccnc([C@H]2C[C@@H]2C(=O)Nc2ncc3c(n2)N(Cc2cn4cc(C5CC5)cc(N5CC(=O)N(C)C5=O)c4n2)CCO3)n1 [Example 631]
18,10 to 100,"O=C(Nc1cc(NCc2cn3cc(C4CC4)cc(OCc4ccccc4)c3n2)ncn1)[C@H]1C[C@@H]1c1cccc(Cl)c1 [Example I-148, (1S,2S)-N-(6-(((8-(benzyloxy)-6-cyclopropylimidazo[1,2-a]pyridin-2-yl)methyl)amino)pyrimidin-4-yl)-2-(3-chlorophenyl)cyclopropane-1-carboxamide]"
19,100 to 1000,"COCCOc1ccc(Cl)cc1[C@H]1C[C@@H]1C(=O)Nc1cc(NCc2cn3cc(C4CC4)ccc3n2)ncn1 (racemic) [Example 310, rac-(1S*,2S*)-2-(5-chloro-2-(2-methoxyethoxy)phenyl)-N-(6-(((6-cyclopropylimidazo[1,2-a]pyridin-2-yl)methyl)amino)pyrimidin-4-yl)cyclopropane-1-carboxamide]"
20,1 to 10,"O=C(Nc1cc2c(cn1)OCCN2Cc1cn2cc(C3CC3)ccc2n1)[C@H]1C[C@@H]1c1cccc(Cl)c1 [Example 597, (1S,2S)-2-(3-chlorophenyl)-N-(1-((6-cyclopropylimidazo[1,2-a]pyridin-2-yl)methyl)-2,3-dihydro-1H-pyrido[3,4-b][1,4]oxazin-7-yl)cyclopropane-1-carboxamide]"
21,10 to 100,"Cc1ccnc([C@H]2C[C@@H]2C(=O)Nc2cc(O[C@@H](C)c3cn4cc(C5CC5)cc(N5CC(=O)N(C)C5=O)c4n3)cnn2)n1 (single isomer, unassigned) [Example 41]"
22,100 to 1000,"COc1cccc([C@H]2C[C@@H]2C(=O)Nc2cc(NCc3cn4cc(C5CC5)ccc4n3)ncn2)c1 (racemic) [Example 53, rac-(1S*,2S*)-N-(6-(6-cyclopropylimidazo[1,2-a]pyridin-2-yl)methyl)amino)pyrimidin-4-yl)-2-(3-methoxyphenyl)cyclopropane-1-carboxamide]"

# Same assay, conditions: comparative compounds, 500 pM activated kallikrein format; read-out: Primary Dose Response Assay: Average EC50
row,EC50 [nM],Compound
1,1000 to 6000,O=C(NCc1cccc(Cl)c1)c1cnn(Cc2cn3cc(C4CC4)ccc3n2)c1
2,1000 to 6000,O=C(NC1CC1Cc1cccc(Cl)c1)c1cnn(Cc2cn3cc(C4CC4)ccc3n2)c1 (stereo not drawn)
